Data set [1] addresses T1, hGPR65 (Homo sapiens, UniProt Q8IYL9).
T1 construct: expressed in transfected cells; host or cells: HeLa (ATCC CCL-2), lentiviral transduction, pLX317
Nature of the data set: cAMP detection in HeLa expression cell line, hGPR65. The format is cell-based. Conditions: for Emax: HeLa, relative to 100uM forskolin (100%) and DMSO (0%), read-out: hGPR Max Activity %. In a few lines: (§1)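 Lentivirally transduced HeLa, V5-tagged GPCR, puromycin 3 μg/ml. 1500 cells/well, stimulation buffer pH 7.2, compound (10 mM DMSO stock), 30 min RT. Lyse, detection reagents 1 h dark RT. TR-FRET cAMP kit, ex 337, em 620/665.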

Another data set concerns the target T2, mGPR65 (Mus musculus, UniProt Q61038).
T2 construct: expressed in transfected cells; host or cells: HeLa (ATCC CCL-2), lentiviral transduction, pLX317
Nature of the data set: cAMP detection in HeLa expression cell line, mGPR65. The class given is cell-based. Conditions: for Emax: HeLa, relative to 100uM forskolin (100%) and DMSO (0%), read-out: mGPR Max Activity %. A digest of the protocol:
as §1

For data set [2], the system named is GFP-expressing HeLa cells. Nature of the data set: cAMP detection in HeLa expression cell line, GFP control. Conditions: Homo sapiens, HeLa, 2nd GFP column pair, NA = no activity. The format is cell-based, human. A digest of the protocol: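 TR-FRET cAMP read-out (Lance Ultra; ex 337 nm, em 620 and 665 nm) after 1 h detection in the dark, following a 30 min RT stimulation of 1500 cells per well in pH 7.2 stimulation buffer with compound supplied as 10 mM DMSO stock. Cells: lentivirally transduced HeLa lines carrying V5-tagged GPCR or GFP, kept under 3 μg/ml puromycin.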

Data set [3] can be described thus: Solubility remark in the Comments column of the SAR table. The class given is physicochemical. An excerpt:
Supplement sciadv.adn2339_data_s1_to_s4.zip/sciadv.adn2339_data_s2.xlsx, sheet "SAR cAMP Assay"

Data set [4] concerns the target T1, hGPR65. Nature of the data set: cAMP detection (Lance Ultra), GPR65 KO HeLa reconstituted with hGPR65; 21K screen dose confirmation. The class given is cell-based. Conditions: primary hit validation. The protocol: The Lance Ultra cAMP Kit (PerkinElmer, TRF0264) was used for cAMP detection, and included the following reagents: ULight anti-cAMP antibody, Eu-cAMP tracer, 7.5% BSA Stabilizer solution, and cAMP detection buffer. Stimulation buffer was prepared as described by the kit manufacturer as follows: Hanks buffered saline solution (HBSS, Life Technologies, 14025-126) containing 0.5 mM IBMX (3-isobutyl-1-methylxanthine, Sigma-Aldrich, I7018) and buffered with 1 M Hepes (15630-080). Stimulation buffer was then adjusted to pH 7.1 using 12 N HCl. HeLa cells were lifted using Versene and then suspended at 2.5 × 10^5 cells/ml in stimulation buffer. Cells were then plated at 20 μl per well (5000 cells per well) in white, opaque OptiPlate 384-well MicroPlates (PerkinElmer, 6007299) using a Thermo Fisher Scientific Combi liquid dispenser. Compounds, stored at 5 mM in DMSO for the primary screen, or in a range of concentrations from 39 μM to 20 mM for dose curves, were transferred by the CyBio CyBi-Well Vario pin transfer tool with 100-nl pins (V&P FP1NS50H, 50-nl slot, 0.457-mm diameter, hydrophobic coated), into each assay well, 100 nl per well for a final assay concentration of 25 μM for the primary screen, or 195 nM to 100 μM for dose curves. Assay plates were then incubated at RT for 30 min. Eu-cAMP tracer was diluted 1:33 into detection buffer and the final solution then distributed into assay wells, 5 μl per well. ULight anti-cAMP antibody was diluted 1:100 into detection buffer, then distributed into assay wells, also 5 μl per well. Assay plates were then incubated at RT in the dark for 1 hour. Eu-cAMP tracer and Förster resonance energy transfer (FRET) emissions were then read using a PerkinElmer EnVision Multimode plate reader (ENVISION21040010), exciting each well at 320 nm [UV2 (TRF) 320 filter] and reading emissions at 615 nm (Europium 615 filter) and 665 nm (APC665 filter). Data analysis was performed using Genedata Screener and GraphPad Prism.
HeLa KO cell lines were generated using the px330 plasmid CRISPR system as previously described ([18]). Briefly, HeLa cells were transfected with a Cas9 vector containing a gene-specific single-guide RNA to target the GPR65 coding exon. Forty-eight to 72 hours after transfection, single clones were obtained through limiting dilution and then sequenced to validate the KO. Reconstituted cell lines were produced by transducing KO cells with empty lentivirus or lentivirus containing hGPR65 or mGPR65. After 48 hours, cells were treated with puromycin (3 μg/ml; InvivoGen, ant-pr-1) and resistant cells were used in experiments.

The subject of data set [5] is GPR65 KO HeLa cells + pLX empty vector. Nature of the data set: cAMP detection, GPR65 KO HeLa + empty pLX vector (null control). The format is cell-based, human. In a few lines:
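CRISPR GPR65-KO HeLa cells, lentivirally reconstituted with hGPR65, mGPR65 or empty vector, were treated at 5000 cells/well in HBSS/Hepes with 0.5 mM IBMX at pH 7.1. Compounds were tested at 25 μM (primary screen) or 195 nM–100 μM (dose curves) for 30 min at RT. cAMP was read by Lance Ultra TR-FRET (665/615 nm) after 1 hour.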

Another data set deals with T3, human GPR4 (hGPR4) (Homo sapiens, UniProt P46093).
T3 construct: expressed in transfected cells; host or cells: HeLa (ATCC CCL-2), lentiviral transduction, pLX317
Nature of the data set: cAMP detection in HeLa expression cell line, hGPR4. The format is cell-based. Conditions: highest concentration tested. The procedure: HeLa stable expression cell lines were produced by lentiviral transduction. Briefly, lentiviral plasmids for each GPCR with a C-terminal V5 Tag ([…]) were made in a pLX317 backbone using competent Escherichia coli (New England Biolabs, C3050H). Lenti-X 293 T (Takara, 632810) cells were transfected with the lentiviral plasmids to produce virus. Low-passage HeLa cells (American Type Culture Collection, CCL-2) were then transduced with lentivirus. After 48 hours, HeLa cells were cultured under selection with puromycin (3 μg/ml) and allowed to recover and expand before storing stocks in liquid nitrogen.
cAMP was measured in cells using the Lance Ultra cAMP Kit. HeLa cells were cultured under puromycin (3 μg/ml) selection. One day before the experiment, cells were seeded in T75 flasks and allowed to adhere overnight. On the day of the experiment, cells were washed twice with Dulbecco’s PBS and lifted using prewarmed 1× versene solution (Gibco, 15040066). Cells were counted in HBSS (Gibco, 14025092) and then resuspended in stimulation buffer prepared according to the manufacturer’s instructions and adjusted to pH 7.2 using 1 M sodium hydroxide. Cells were added to the plate at a density of 1500 cells per well in white opaque 384-well assay ready microplates containing 100 nl of 10 mM compound in DMSO. Cells were stimulated for 30 min at RT, then lysed and incubated with detection reagents for 1 hour in the dark at RT. Plates were read on BMG Labtech PHERAstar FSX (excitation, 337 nm; emission, 620 and 665 nm). Data analysis was performed using GraphPad Prism.

The next data set relates to human PBMCs. Nature of the data set: cAMP detection in human PBMCs. Conditions: 0 to 50 μM, 30 min, pH 7.2. The format is cell-based. The protocol:
Human blood samples were collected from healthy donors at the Blood Donor Center at Massachusetts General Hospital in compliance with all relevant ethical regulations and according to protocol 2018P001504 approved by the Mass General Brigham Institutional Review Board. Donors provided informed written consent. Human PBMCs were isolated by density gradient separation using Ficoll-Paque PLUS (VWR- GE Life Sciences, catalog no. 17144002), as previously described ([54]). Isolated PBMCs were incubated overnight in DMEM (10% FBS, 0.2% sodium bicarbonate, 1X Glutamax) at 37°C, 5% CO2. Human monocytes were isolated from an unpurified Buffy Coat using RosetteSep human monocyte enrichment cocktail (StemCell Technologies, 15068) and frozen same day in FBS with 10% DMSO.
cAMP was measured in cells using the Lance Ultra cAMP Kit. Compound dose curves were prepared in an assay buffer, which was made according to the manufacturer’s guidelines using DMEM instead of HBSS. Assay buffer was adjusted to desired pH using 1 M HCl or NaOH. PBMCs were collected, centrifuged, and resuspended in assay buffer. Dose curves and cells were added to a white opaque OptiPlate (PerkinElmer, 6007290) at a density of 20,000 cells per well. […] Eu-cAMP tracer and FRET emissions were read using a PerkinElmer EnVision Multimode plate reader (ENVISION21040010). […]

A short description of data set [6]: Solubility in phosphate buffer. The class given is physicochemical. The following applies: read-out: Solubility.
The nature of the next data set: Lipophilicity (logD). The following applies: pH 7.4; pH7.4; read-out: LogD (pH7.4). The class given is physicochemical.
Data set [7] has as its target T1, hGPR65. Nature of the data set: cAMP detection (Lance Ultra), GPR65 KO HeLa reconstituted with hGPR65; 21K screen dose confirmation. The class given is cell-based.
The mark [8] stands for this setting: 1st hGPR column pair, NA = no activity.
The mark [9] stands for this setting: 2nd hGPR column pair, NA = no activity.
Where [10] appears, read: 2nd mGPR column pair, NA = no activity.

Read-outs that look alike come from different tables or passages of the source. Bounds are passed on as bounds.

T2 sequence (Q61038 whole entry): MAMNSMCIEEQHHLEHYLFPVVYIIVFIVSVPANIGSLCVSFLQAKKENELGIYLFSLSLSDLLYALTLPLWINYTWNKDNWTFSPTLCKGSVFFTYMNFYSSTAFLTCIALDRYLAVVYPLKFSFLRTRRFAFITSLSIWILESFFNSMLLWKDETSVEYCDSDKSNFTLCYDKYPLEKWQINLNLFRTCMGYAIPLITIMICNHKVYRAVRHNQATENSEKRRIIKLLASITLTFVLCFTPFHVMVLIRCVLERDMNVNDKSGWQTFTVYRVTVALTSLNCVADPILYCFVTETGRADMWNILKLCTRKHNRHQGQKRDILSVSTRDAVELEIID
T1 sequence (Q8IYL9 whole entry): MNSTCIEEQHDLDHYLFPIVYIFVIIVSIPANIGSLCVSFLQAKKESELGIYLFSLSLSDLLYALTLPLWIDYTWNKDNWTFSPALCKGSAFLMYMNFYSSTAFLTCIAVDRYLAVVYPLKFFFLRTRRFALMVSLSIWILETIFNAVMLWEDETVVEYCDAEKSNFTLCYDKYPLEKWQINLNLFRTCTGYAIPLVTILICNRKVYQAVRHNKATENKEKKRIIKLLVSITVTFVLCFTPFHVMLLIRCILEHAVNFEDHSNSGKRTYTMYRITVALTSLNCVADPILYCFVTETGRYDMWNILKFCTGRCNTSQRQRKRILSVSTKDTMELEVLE
T3 sequence (P46093 whole entry): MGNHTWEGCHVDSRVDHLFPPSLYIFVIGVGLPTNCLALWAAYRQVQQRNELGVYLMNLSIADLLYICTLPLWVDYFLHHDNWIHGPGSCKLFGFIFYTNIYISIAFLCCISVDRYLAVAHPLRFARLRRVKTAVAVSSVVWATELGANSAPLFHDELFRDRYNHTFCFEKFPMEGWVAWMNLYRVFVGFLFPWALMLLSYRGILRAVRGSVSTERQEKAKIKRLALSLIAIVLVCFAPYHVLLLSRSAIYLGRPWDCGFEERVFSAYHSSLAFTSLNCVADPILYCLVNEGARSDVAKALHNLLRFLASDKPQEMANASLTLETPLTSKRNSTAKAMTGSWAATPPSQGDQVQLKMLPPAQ

On to `Cc1ccc(NC(=O)c2cnn3c(O)cc(-c4ccc(-c5ccccc5C(C)C)cc4)nc23)cc1` [BRD4665], for which the EC50 on hGPR65 [1] (1st hGPR column pair, NA = no activity, read-out: hGPR EC50) was determined as 0.227 µM; on hGPR65 [1] (2nd hGPR column pair, NA = no activity, read-out: hGPR EC50), 0.152 µM; on mGPR65 (1st mGPR column pair, NA = no activity, read-out: mGPR EC50), 0.787 µM; on mGPR65 (2nd mGPR column pair, NA = no activity, read-out: mGPR EC50) it was 0.627 µM; in data set [2], 26.4 µM. Further, the Emax at hGPR65 [1] (setting [8]) amounted to 76.3%; at hGPR65 [1] (setting [9]), 79.6%; on mGPR65 (setting [10]), 33.2%; at mGPR65 (NA = no activity), 34.9%; in [2] (relative to 100uM forskolin (100%) and DMSO (0%), read-out: GFP Max Activity %), 12%. For the same compound, in data set [3], the “Comments (solubility)” value is listed as “Poor solubility”.

For `COCc1ccc(-c2cc(O)n3ncc(C(=O)Nc4ccc(C)cc4)c3n2)cc1` [BRD2813, COCc1ccc(cc1)-c1cc(O)n2ncc(C(=O)Nc3ccc(C)cc3)c2n1], the “cAMP activity in hGPR65-expressing cells” value on hGPR65 [4] is recorded as “dose-dependent activity”. Further, the EC50 was more than 100 µM in data set [5] (Homo sapiens, 0.5 h, HeLa GPR65 KO + pLX, pH 7.1, 30 min, normalized to DMSO and 100 μM forskolin); 0.866 µM at hGPR65 [1] (hGPR EC50 (uM), NA = no activity); 1.2 µM at hGPR65 [1] (hGPR EC50 (uM), pH 7.2, 30 min); 0.993 µM at hGPR65 [1] (hGPR EC50, NA = no activity); 0.724 µM at hGPR65 [1] (hGPR EC50, pH 7.2, 30 min); 0.942 µM on mGPR65 (mGPR EC50 (uM), first pair of columns, pH 7.2, 30 min). Moreover, the EC50 at mGPR65 (mGPR EC50 (uM), second pair of columns, pH 7.2, 30 min) is 0.406 µM; on mGPR65 (mGPR EC50 (uM), NA = no activity) it was 0.693 µM. The “cAMP production in control cells” value in data set [5] (primary hit validation) was “without inducing cAMP production”. The Emax amounted to 78.8% at hGPR65 [1] (setting [8]), 79.2% at hGPR65 [1] (setting [9]), 39.6% on mGPR65 (setting [10]) and 35.8% on mGPR65 (NA = no activity). Moreover, the “cAMP relative to DMSO in the hGPR4 cells” value on human GPR4 (hGPR4) is on record as “decrease in cAMP”. Further, in the data set with human PBMCs, the “cAMP production in human PBMCs, compared” value is recorded as “outperformed BTB09089”. For the same compound, the solubility in data set [6] is less than 1.56 µM. Besides, the logD in “Lipophilicity (logD)” is more than 4.65. For the same compound, the “pH of greatest compound effect” value at hGPR65 [7] (0-50 μM, pH curves) is “between pH 7.1 and 7.3”. The “cAMP response, BRD2813 compared with BTB09089” value on hGPR65 [7] (0 to 50 μM, pH 7.2) is on record as “greater cAMP response”. Moreover, on hGPR65 [7] (increasing concentrations, 0 to 50 μM), the “shift in the pH response curve of GPR65” value is “leftward shift”.
